Measured values from the supplement of paper PMC10307832.

Columns and labels:
Test in all cases: relative viability (nuclei count vs DMSO), 5 days (fraction); higher = more cells survive
[1] = tested on: NCI-H2228
Method in brief: (§1)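 Relative viability was taken as the ratio of nuclei in treated wells to nuclei in vehicle wells. Lung cancer cell lines in 1536-well plates received compounds by pin tool one day after seeding, either one drug alone or a fixed anchor-drug dose plus five library-drug doses (not always all listed) in √10 steps. Nuclei were counted on 4× images after 5 days of treatment, and values are medians of duplicate plates.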

[2] = tested on: ABC-1
Method in brief: as §1

[3] = tested on: A549
Method in brief: as §1

[4] = tested on: LOU-NH91
Method in brief: as §1

[5] = tested on: NCI-H1755
Method in brief: as §1

[6] = tested on: LK-2
Method in brief: as §1

[7] = tested on: NCI-H1703
Method in brief: as §1

[8] = tested on: Calu-6
Method in brief: as §1

[9] = tested on: NCI-H1299
Method in brief: as §1

[10] = tested on: EBC-1
Method in brief: as §1

[11] = tested on: NCI-H1666
Method in brief: as §1

[12] = tested on: IA-LM
Method in brief: as §1

[13] = tested on: NCI-H1650
Method in brief: as §1

Q: Which relative viability ([1]; first compound 0.2 µM) does the source give for COCC1(CO)C(=O)C2CCN1CC2 (stereo not drawn) [PRIMA-1MET] + C[C@]1(O)C[C@@H](c2nc(-c3ccc4ccc(-c5ccccc5)nc4c3)c3c(N)nccn32)C1 [Linsitinib] (partner 1 µM) here?
A: 0.735

Q: What about the relative viability ([1]; first compound 0.6325 µM) of the same molecule?
A: 0.552

Q: What about the relative viability ([1]; first compound 2 µM) of the same molecule?
A: 0.602

Q: And the relative viability ([1]; first compound 6.325 µM)?
A: 0.61

Q: And the relative viability ([1]; first compound 20 µM)?
A: 0.046

Q: What about the relative viability ([2]; first compound 0.2 µM) of the same molecule?
A: 0.899

Q: What about the relative viability ([2]; first compound 0.6325 µM) of the same molecule?
A: 0.958

Q: What about the relative viability ([2]; first compound 2 µM) of the same molecule?
A: 0.89

Q: And the relative viability ([2]; first compound 6.325 µM)?
A: 0.833

Q: And the relative viability ([2]; first compound 20 µM)?
A: 0.519

Q: And the relative viability ([3]; first compound 0.2 µM)?
A: 0.708

Q: And the relative viability ([3]; first compound 0.6325 µM)?
A: 0.559

Q: And the relative viability ([3]; first compound 2 µM)?
A: 0.281

Q: What about the relative viability ([3]; first compound 6.325 µM) of the same molecule?
A: 0.598

Q: And the relative viability ([3]; first compound 20 µM)?
A: 0.403

Q: And the relative viability ([4]; first compound 0.2 µM)?
A: 1.02

Q: And the relative viability ([4]; first compound 0.6325 µM)?
A: 0.771

Q: And the relative viability ([4]; first compound 2 µM)?
A: 0.773

Q: And the relative viability ([4]; first compound 6.325 µM)?
A: 1.01

Q: What about the relative viability ([4]; first compound 20 µM) of the same molecule?
A: 0.582

Q: And the relative viability ([5]; first compound 0.2 µM)?
A: 0.979

Q: And the relative viability ([5]; first compound 0.6325 µM)?
A: 0.946

Q: And the relative viability ([5]; first compound 2 µM)?
A: 0.937

Q: And the relative viability ([5]; first compound 6.325 µM)?
A: 1.02

Q: And the relative viability ([5]; first compound 20 µM)?
A: 0.983

Q: And the relative viability ([6]; first compound 0.2 µM)?
A: 0.624

Q: What about the relative viability ([6]; first compound 0.6325 µM) of the same molecule?
A: 0.554

Q: What about the relative viability ([6]; first compound 2 µM) of the same molecule?
A: 0.237

Q: And the relative viability ([6]; first compound 6.325 µM)?
A: 0.224

Q: And the relative viability ([6]; first compound 20 µM)?
A: 0.103

Q: And the relative viability ([7]; first compound 0.2 µM)?
A: 0.25

Q: And the relative viability ([7]; first compound 6.325 µM)?
A: 1.29

Q: What about the relative viability ([7]; first compound 20 µM) of the same molecule?
A: 0.0482

Q: And the relative viability ([8]; first compound 0.2 µM)?
A: 1.02

Q: What about the relative viability ([8]; first compound 0.6325 µM) of the same molecule?
A: 0.885

Q: What about the relative viability ([8]; first compound 2 µM) of the same molecule?
A: 0.732

Q: What about the relative viability ([8]; first compound 6.325 µM) of the same molecule?
A: 0.957

Q: What about the relative viability ([8]; first compound 20 µM) of the same molecule?
A: 0.687

Q: What about the relative viability ([9]; first compound 0.2 µM) of the same molecule?
A: 1.15

Q: What about the relative viability ([9]; first compound 0.6325 µM) of the same molecule?
A: 0.852

Q: And the relative viability ([9]; first compound 2 µM)?
A: 1.01

Q: What about the relative viability ([9]; first compound 6.325 µM) of the same molecule?
A: 1.05

Q: What about the relative viability ([9]; first compound 20 µM) of the same molecule?
A: 0.917

Q: And the relative viability ([10]; first compound 0.2 µM)?
A: 1.02

Q: What about the relative viability ([10]; first compound 0.6325 µM) of the same molecule?
A: 0.972

Q: What about the relative viability ([10]; first compound 2 µM) of the same molecule?
A: 0.758

Q: What about the relative viability ([10]; first compound 6.325 µM) of the same molecule?
A: 0.9

Q: And the relative viability ([10]; first compound 20 µM)?
A: 0.623

Q: What about the relative viability ([11]; first compound 0.2 µM) of the same molecule?
A: 0.794

Q: And the relative viability ([11]; first compound 0.6325 µM)?
A: 0.781

Q: What about the relative viability ([11]; first compound 2 µM) of the same molecule?
A: 0.833

Q: And the relative viability ([11]; first compound 6.325 µM)?
A: 0.742

Q: What about the relative viability ([11]; first compound 20 µM) of the same molecule?
A: 0.134

Q: And the relative viability ([12]; first compound 0.2 µM)?
A: 0.483

Q: And the relative viability ([12]; first compound 0.6325 µM)?
A: 0.661

Q: And the relative viability ([12]; first compound 2 µM)?
A: 0.358

Q: What about the relative viability ([12]; first compound 6.325 µM) of the same molecule?
A: 0.713

Q: What about the relative viability ([12]; first compound 20 µM) of the same molecule?
A: 0.573

Q: How did the relative viability ([1]; first compound 0.2 µM) turn out when COCC1(CO)C(=O)C2CCN1CC2 (stereo not drawn) [PRIMA-1MET] + C[C@@H](Oc1cc(-c2cnn(C3CCNCC3)c2)cnc1N)c1c(Cl)ccc(F)c1Cl [Crizotinib] (partner 1 µM) was run?
A: 0.414

Q: What about the relative viability ([1]; first compound 0.6325 µM) of the same molecule?
A: 0.455

Q: And the relative viability ([1]; first compound 2 µM)?
A: 0.444

Q: What about the relative viability ([1]; first compound 6.325 µM) of the same molecule?
A: 0.547

Q: And the relative viability ([1]; first compound 20 µM)?
A: 0.0537

Q: And the relative viability ([2]; first compound 0.2 µM)?
A: 1.39

Q: What about the relative viability ([2]; first compound 0.6325 µM) of the same molecule?
A: 1.22

Q: And the relative viability ([2]; first compound 2 µM)?
A: 0.945

Q: What about the relative viability ([2]; first compound 6.325 µM) of the same molecule?
A: 0.908

Q: What about the relative viability ([2]; first compound 20 µM) of the same molecule?
A: 0.555

Q: And the relative viability ([3]; first compound 0.2 µM)?
A: 0.961

Q: And the relative viability ([3]; first compound 0.6325 µM)?
A: 0.577

Q: And the relative viability ([3]; first compound 2 µM)?
A: 0.813

Q: And the relative viability ([3]; first compound 6.325 µM)?
A: 0.817

Q: What about the relative viability ([3]; first compound 20 µM) of the same molecule?
A: 0.746

Q: What about the relative viability ([4]; first compound 0.2 µM) of the same molecule?
A: 0.788

Q: What about the relative viability ([4]; first compound 0.6325 µM) of the same molecule?
A: 0.583

Q: What about the relative viability ([4]; first compound 2 µM) of the same molecule?
A: 0.743

Q: And the relative viability ([4]; first compound 6.325 µM)?
A: 0.773

Q: And the relative viability ([4]; first compound 20 µM)?
A: 0.681

Q: And the relative viability ([13]; first compound 0.2 µM)?
A: 1.22

Q: What about the relative viability ([13]; first compound 0.6325 µM) of the same molecule?
A: 1.02

Q: And the relative viability ([13]; first compound 2 µM)?
A: 1

Q: And the relative viability ([13]; first compound 6.325 µM)?
A: 0.992

Q: What about the relative viability ([13]; first compound 20 µM) of the same molecule?
A: 0.659

Q: And the relative viability ([5]; first compound 0.2 µM)?
A: 0.996

Q: What about the relative viability ([5]; first compound 0.6325 µM) of the same molecule?
A: 0.825

Q: And the relative viability ([5]; first compound 2 µM)?
A: 0.826

Q: And the relative viability ([5]; first compound 6.325 µM)?
A: 0.915

Q: And the relative viability ([5]; first compound 20 µM)?
A: 0.81

Q: What about the relative viability ([6]; first compound 0.2 µM) of the same molecule?
A: 0.221

Q: And the relative viability ([6]; first compound 0.6325 µM)?
A: 0.182

Q: And the relative viability ([6]; first compound 2 µM)?
A: 0.22

Q: And the relative viability ([6]; first compound 6.325 µM)?
A: 0.255

Q: What about the relative viability ([6]; first compound 20 µM) of the same molecule?
A: 0.18

Q: And the relative viability ([7]; first compound 0.2 µM)?
A: 0.749

Q: And the relative viability ([7]; first compound 0.6325 µM)?
A: 0.861

Q: And the relative viability ([7]; first compound 2 µM)?
A: 0.784

Q: And the relative viability ([7]; first compound 6.325 µM)?
A: 0.377

Q: What about the relative viability ([7]; first compound 20 µM) of the same molecule?
A: 0.0587

Q: And the relative viability ([8]; first compound 0.2 µM)?
A: 0.795

Q: And the relative viability ([8]; first compound 0.6325 µM)?
A: 0.901

Q: What about the relative viability ([8]; first compound 2 µM) of the same molecule?
A: 0.825

Q: What about the relative viability ([8]; first compound 6.325 µM) of the same molecule?
A: 0.886

Q: And the relative viability ([8]; first compound 20 µM)?
A: 0.627

Q: What about the relative viability ([9]; first compound 0.2 µM) of the same molecule?
A: 0.988

Q: What about the relative viability ([9]; first compound 0.6325 µM) of the same molecule?
A: 0.728

Q: And the relative viability ([9]; first compound 2 µM)?
A: 1

Q: What about the relative viability ([9]; first compound 6.325 µM) of the same molecule?
A: 0.978

Q: What about the relative viability ([9]; first compound 20 µM) of the same molecule?
A: 0.955

Q: What about the relative viability ([10]; first compound 0.2 µM) of the same molecule?
A: 0.19

Q: What about the relative viability ([10]; first compound 0.6325 µM) of the same molecule?
A: 0.174

Q: What about the relative viability ([10]; first compound 2 µM) of the same molecule?
A: 0.197

Q: What about the relative viability ([10]; first compound 6.325 µM) of the same molecule?
A: 0.192

Q: And the relative viability ([10]; first compound 20 µM)?
A: 0.212

Q: And the relative viability ([11]; first compound 0.2 µM)?
A: 1.15

Q: And the relative viability ([11]; first compound 0.6325 µM)?
A: 0.9

Q: And the relative viability ([11]; first compound 2 µM)?
A: 0.987

Q: What about the relative viability ([11]; first compound 6.325 µM) of the same molecule?
A: 1.25

Q: What about the relative viability ([11]; first compound 20 µM) of the same molecule?
A: 0.443

Q: What about the relative viability ([12]; first compound 0.2 µM) of the same molecule?
A: 0.856

Q: What about the relative viability ([12]; first compound 0.6325 µM) of the same molecule?
A: 0.868

Q: And the relative viability ([12]; first compound 2 µM)?
A: 0.955

Q: What about the relative viability ([12]; first compound 6.325 µM) of the same molecule?
A: 0.851

Q: And the relative viability ([12]; first compound 20 µM)?
A: 0.838
